In publication PMC13288762 (Frontiers in Medicine, 2026):

Columns and labels:
[1] = tested on: Mdr2−/− mice (model of PSC); assay: MC infiltration and activation in liver of Mdr2−/− mice (IHC, qPCR); format: in vivo, mouse; conditions: 20 mg/kg IP daily, 2 weeks
Method: (§1) Animal procedures were performed according to protocols approved by Indiana University School of Medicine Institutional Animal Care and Use Committee. […] Male Mdr2^−/− mice (n = 8) were collected at twelve-weeks for PSC model. Twelve-week-old male Friend Virus B NIH Jackson (FVB/NJ [FVB/wild type (WT) control], n = 8) mice were used as control WT for Mdr2^−/−.
(§2) In all groups, serum, liver, cholangiocytes, and cholangiocyte supernatants were collected as described ([18], [19]). The collected liver was divided into three portions: (i) snap-frozen tissue; (ii) OCT-embedded blocks (5 μm cryosections) for immunofluorescence (IF); and (iii) formalin-fixed, paraffin-embedded (FFPE) blocks (4 μm sections) for immunohistochemistry (IHC).
(§3) Liver inflammation was evaluated by IHC for F4/80 in FFPE mouse liver sections, and positive cells were quantified by Image-Pro Premier software (Rockville, MD). Liver MC infiltration was detected with IHC for tryptase β-2 (Tpsb2) and mucosal MC chymase-1 (mMCP1) in liver sections. MCs were semi-quantified as Tpsb2 or mMCP1 positivite cell number/total area with Image-Pro Premier software (Rockville, MD). MC activation was determined by qPCR for Fc fragment of IgE, high affinity I, receptor for alpha polypeptide (Fcer1a), Mcpt1 and Tpsb2 in total liver samples.
(§4) Since we found increased chymase levels in human PSC livers, we evaluated the pharmacological inhibition of chymase in modulating PSC in Mdr2^−/− mice. […] All treatment groups were compared to Mdr2^−/− mice.

[2] = parameters: method as in earlier work; conditions: Phase 2 clinical trial, atopic dermatitis; cited from earlier work
[3] = tested on: Mdr2−/− mice (model of PSC); assay: Liver fibrosis in Mdr2−/− mice (FG/SR, hydroxyproline, desmin IF, qPCR); format: in vivo, mouse
Method: as §1, §2
Collagen deposition was determined by Fast Green/Sirius Red staining in FFPE mouse liver sections and quantified by the Image-Pro Premier software (Rockville, MD). Liver fibrosis was also determined by measuring hydroxyproline levels in total liver samples using the hydroxyproline assay kit (MAK008-1KT; Millipore Sigma, Billerica, MA). To detect activated HSCs, IF for desmin (co-stained with CK-19) was performed in frozen liver sections with semi-quantification ([20], [21]). The mRNA expression of the fibrosis markers, collagen type I alpha 1 (Col1a1) and tissue inhibitor of metalloproteinases 2 (Timp2) and transforming growth factor beta 1 (Tgfb1) was measured in total mouse livers by qPCR.
as §4

[4] = tested on: Mdr2−/− mice (model of PSC); assay: Ductular reaction and biliary senescence in Mdr2−/− mice (CK-19 IHC, p16 IF, qPCR); format: in vivo, mouse; conditions: 20 mg/kg IP
Method: as §1, §2
Ductular reaction was evaluated in FFPE mouse liver sections by IHC for CK-19 to specifically mark bile ducts. Stained slides were scanned by a digital scanner (Aperio AT2 scanner; Leica Biosystems). CK-19-positive area was quantified using the Image-Pro Premier software (Rockville, MD). Biliary senescence was evaluated by: (i) IF for p16 expression in frozen liver sections co-stained with CK-19 (to mark bile ducts) and (ii) mRNA expression of cellular senescence markers, cyclin dependent kinase inhibitor 2a (Cdkn2a; gene for p16), cyclin dependent kinase inhibitor 2c (Cdkn2c, gene for p18) and galactosidase, beta 1-like (Glb1l) in isolated mouse cholangiocytes ([3], [19]).
as §4

[5] = tested on: aortic aneurysm model; parameters: method as in PMID 31128093; conditions: 10 mg/kg for 4 weeks; cited from earlier work
[6] = tested on: Mdr2−/− mice (model of PSC); assay: Liver damage, bile acids and inflammation in Mdr2−/− mice (H&E, TBA kit, F4/80 IHC); format: in vivo, mouse; conditions: 20 mg/kg IP daily, 2 weeks
Method: as §1, §2
Liver damage was assessed by hematoxylin and eosin (H&E) staining in FFPE mouse liver sections and scored in a coded fashion to determine portal inflammation. Serum and liver total bile acids (TBAs) were determined using a TBA Assay Kit (Colorimetric, Sigma-Aldrich).
as §3, §4

[7] = tested on: Mdr2−/− mice (model of PSC); parameters: method as in PMID 10711453; conditions: cited from earlier work
[8] = male Mdr2−/− mice, vs untreated Mdr2−/−, qPCR total liver
[9] = 20 mg/kg IP daily, 2 weeks, qPCR total liver
[10] = 20 mg/kg IP daily, 2 weeks, vs untreated mice

CCC[C@@H](NC(=O)N1CC(=NOCC)NC[C@H](Cc2cc(Cl)ccc2OC)C1=O)c1ccc(C(=O)O)c(N)c1 [INVA8001]
number of chymase (mMCP1)-positive cells in liver ([1]; Mdr2−/− mice, IHC): significant reduction | number of tryptase (Tpsb2)-positive cells in liver ([1]; Mdr2−/− mice, IHC): significant reduction | Fcer1a mRNA expression in liver [1, 8]: attenuated | Mcpt1 mRNA expression in liver [1, 8]: attenuated | Tpsb2 mRNA expression in liver [1, 8]: decreasing trend (not statistically significant) | safety and tolerability, adverse effects [2]: no significant adverse effects reported | Col1a1 gene expression in liver [3, 9]: significantly reduced | Tgfb1 gene expression in liver [3, 9]: significantly reduced | Timp2 gene expression in liver [3, 9]: significantly reduced | hepatic fibrosis, FG/SR staining [3, 10]: decreased | liver hydroxyproline content [3, 10]: lowered | desmin immunoreactivity (HSC activation) ([3]; 20 mg/kg IP, IF liver sections): significantly reduced | p16 immunoreactivity in liver ([4]; IF co-stained with CK-19): reduced | bile duct mass (CK-19-positive bile ducts) ([4]; IHC): significant reduction | Cdkn2a expression in isolated cholangiocytes ([4]; qPCR isolated cholangiocytes): reduced | Cdkn2c expression in isolated cholangiocytes ([4]; qPCR isolated cholangiocytes): reduced | Glb1l expression in isolated cholangiocytes ([4]; qPCR isolated cholangiocytes): reduced | Tgfb1 expression in isolated cholangiocytes ([4]; qPCR isolated cholangiocytes): reduced | Cdkn2a mRNA expression in total liver ([4]; qPCR total liver): reduced | efficacy in a model of aortic aneurysm [5]: effective | histological damage (H&E) [6]: amelioration | portal inflammation (H&E) [6]: amelioration | liver enzymes ([6]; data not shown): no significant changes | hepatic total bile acid (TBA) accumulation ([6]; liver tissue): significant reduction | number of infiltrating macrophages (F4/80 staining) ([6]; portal tracts, IHC): significantly reduced | serum total bile acid (TBA) accumulation ([6]; serum): significant reduction

O=C(O)c1cc(=O)c2c(OCC(O)COc3cccc4oc(C(=O)O)cc(=O)c34)cccc2o1 [cromolyn sodium]
levels of MC mediators, inflammation, tissue damage, and fibrosis [7]: attenuates
